Data reported in patent US7732375B2, “Hexyl carboxanilides and their use for controlling fungi” (Bayer CropScience AG, priority 2003, dated 2010).

Key:
[1] = tested on: Podosphaera leucotricha; experiment: Podosphaera test (apple)/protective; assay type: in vivo; details: 240 h, protective, application rate 100 g/ha, evaluation 10 days after inoculation, read-out: Efficacy in %
Experimental: (§1) • Solvents: 24.5 parts by weight of acetone • 24.5 parts by weight of dimethylacetamide • Emulsifier: 1 part by weight of alkylaryl polyglycol ether
(§2) To produce a suitable preparation of active compound, 1 part by weight of active compound is mixed with the stated amounts of solvents and emulsifier, and the concentrate is diluted with water to the desired concentration.
To test for protective activity, young plants are sprayed with the preparation of active compound at the stated application rate. After the spray coating has dried on, the plants are inoculated with an aqueous spore suspension of the apple mildew pathogen Podosphaera leucotricha. The plants are then placed in a greenhouse at about 23° C. and a relative atmospheric humidity of about 70%.
(§3) Evaluation is carried out 10 days after the inoculation. 0% means an efficacy which corresponds to that of the control, whereas an efficacy of 100% means that no infection is observed.

[2] = tested on: Puccinia recondita; experiment: Puccinia test (wheat)/protective; assay type: in vivo; details: evaluation 10 days after inoculation
Experimental: • a) Solvent: 50 parts by weight of N,N-dimethylacetamide Emulsifier: 1 part by weight of alkylaryl polyglycol ether • b) Solvent: 25 parts by weight of N,N-dimethylacetamide Emulsifier: 0.6 part by weight of alkylaryl polyglycol ether To produce a suitable preparation of active compound, 1 part by weight of active compound is mixed with the stated amounts of solvent and emulsifier, and the concentrate is diluted with water to the desired concentration. To test for protective activity, young plants are sprayed with the preparation of active compound at the stated application rate. After the spray coating has dried on, the plants are sprayed with a conidia suspension of Puccinia recondita. The plants remain in an incubation cabin at 20° C. and 100% relative atmospheric humidity for 48 hours. The plants are then placed in a greenhouse at a temperature of about 20° C. and a relative atmospheric humidity of 80% to promote the development of rust pustules. Evaluation is carried out 10 days after the inoculation. 0% means an efficacy which corresponds to that of the control, whereas an efficacy of 100% means that no infection is observed.

[3] = tested on: Sphaerotheca fuliginea; experiment: Sphaerotheca test (cucumber)/protective; assay type: in vivo; details: protective, application rate 750 g/ha, evaluation 7 days after inoculation
Experimental: Solvent: 49 parts by weight of N,N-dimethylformamide Emulsifier: 1 part by weight of alkylaryl polyglycol ether To produce a suitable preparation of active compound, 1 part by weight of active compound is mixed with the stated amounts of solvent and emulsifier, and the concentrate is diluted with water to the desired concentration. To test for protective activity, young cucumber plants are sprayed with the preparation of active compound at the stated application rate. 1 day after treatment the plants are inoculated with a spore suspension of Sphaerotheca fuliginea. The plants are then placed in a greenhouse at a relative atmospheric humidity of 70% and a temperature of 23° C. Evaluation is carried out 7 days after the inoculation. 0% means an efficacy which corresponds to that of the control, whereas an efficacy of 100% means that no infection is observed.

[4] = logP determination by HPLC on reversed-phase column (C 18), EEC Directive 79/831 Annex V.A8; assay type: physicochemical; details: reversed-phase HPLC column (C 18), pH 2.3, 0.1% aqueous phosphoric acid and acetonitrile, 43° C.
Experimental: The determination of the logP values given in the preparation examples and tables above is carried out in accordance with EEC Directive 79/831 Annex V.A8 by HPLC (High Performance Liquid Chromatography) on a reversed-phase column (C 18). Temperature: 43° C. The determination is carried out in the acidic range at pH 2.3 using the mobile phases, 0.1% aqueous phosphoric acid and acetonitrile; linear gradient from 10% acetonitrile to 90% acetonitrile. Calibration is carried out using unbranched alkan-2-ones (of 3 to 16 carbon atoms) with known logP values (determination of the logP values by the retention times using linear interpolation between two successive alkanones).

[5] = tested on: Venturia inaequalis; experiment: Venturia test (apple)/protective; assay type: in vivo; details: protective, application rate 100 g/ha, evaluation 10 days after inoculation; for pest or weed control at 100 g/ha: Venturia inaequalis, 240 h, read-out: Efficacy in %
Experimental: as §1, §2
To test for protective activity, young plants are sprayed with the preparation of active compound at the stated application rate. After the spray coating has dried on, the plants are inoculated with an aqueous conidia suspension of the apple scab pathogen Venturia inaequalis and then remain in an incubation cabin at about 20° C. and 100% relative atmospheric humidity for 1 day.
The plants are then placed in a greenhouse at about 21° C. and a relative atmospheric humidity of about 90%.
as §3

[6] = tested on: Botrytis cinerea; experiment: Botrytis test (bean)/protective; assay type: in vivo; details: protective, application rate 500 g/ha, evaluation 2 days after inoculation; for pest or weed control at 500 g/ha: Botrytis cinerea, 48 h, read-out: Efficacy in %
Experimental: as §1, §2
To test for protective activity, young plants are sprayed with the preparation of active compound at the stated application rate. After the spray coating has dried on, 2 small pieces of agar colonized by Botrytis cinerea are placed onto each leaf. The inoculated plants are placed in a dark chamber at about 20° C. and 100% relative atmospheric humidity.
2 days after the inoculation, the size of the infected areas on the leaves is evaluated. 0% means an efficacy which corresponds to that of the control, whereas an efficacy of 100% means that no infection is observed.

[7] = tested on: Erysiphe graminis f.sp. hordei; experiment: Erysiphe test (barley)/protective; assay type: in vivo; details: protective, application rate 500 g/ha, evaluation 7 days after inoculation
Experimental: Solvent: 25 parts by weight of N,N-dimethylacetamide Emulsifier: 0.6 part by weight of alkylaryl polyglycol ether To produce a suitable preparation of active compound, 1 part by weight of active compound is mixed with the stated amounts of solvent and emulsifier, and the concentrate is diluted with water to the desired concentration. To test for protective activity, young plants are sprayed with the preparation of active compound at the stated application rate. After the spray coating has dried on, the plants are dusted with spores of Erysiphe graminis f.sp. hordei. The plants are placed in a greenhouse at a temperature of about 20° C. and a relative atmospheric humidity of about 80% to promote the development of mildew pustules. Evaluation is carried out 7 days after the inoculation. 0% means an efficacy which corresponds to that of the control, whereas an efficacy of 100% means that no infection is observed.

[8] = wheat; application rate 500 g/ha; solvent/emulsifier a)
[9] = wheat; application rate 500 g/ha; solvent/emulsifier b)

For `CC(CC(C)(C)C)c1ccccc1NC(=O)c1c(C(F)(F)F)nn(C)c1Cl` (stereo not drawn), the pest or weed control at 100 g/ha [1] was 97%.

Compound `CCC(C)(C)CC(C)c1ccccc1NC(=O)c1cn(C)nc1C(F)(F)F` (stereo not drawn) has an Efficacy in % [2, 8] of 100%.

With `Cc1nc(Cl)sc1C(=O)Nc1ccccc1C(C)CC(C)(C)C` (stereo not drawn) the Efficacy in % [2, 8] was 100%.

In the case of `Cc1occc1C(=O)Nc1ccccc1C(C)CC(C)(C)C` (stereo not drawn), the Efficacy in % [2, 9] was 100%.

Compound `CC(F)c1nn(C)cc1C(=O)Nc1ccccc1C(C)CC(C)(C)C` (stereo not drawn) has an Efficacy in % [3] of 90%.

`CC(CC(C)(C)C)c1ccccc1NC(=O)c1cn(C)nc1C(Cl)Cl` (stereo not drawn) [Example 1] gave a chromatographic logP [4] of 4.02.

`Cn1cc(C(=O)Cl)c(C(Cl)Cl)n1` [Example (II-1), 3-dichloromethyl-1-methyl-1H-pyrazole-4-carbonyl chloride] showed a chromatographic logP [4] of 1.8.

Compound `Cc1ccsc1C(=O)Nc1ccccc1C(C)CC(C)(C)C` (stereo not drawn) [drawing 85] has a pest or weed control at 100 g/ha [1] of 85%.

Work on `CCC(C)(C)CC(C)c1ccccc1NC(=O)C1=C(C)OCCS1` (stereo not drawn) [drawing 86] yielded a pest or weed control at 100 g/ha [1] of 94%.

`CCC(C)(C)CC(C)c1ccccc1NC(=O)c1ccoc1C` (stereo not drawn) [drawing 87] gave a pest or weed control at 100 g/ha [1] of 91%.

`CCC(C)(C)CC(C)c1ccccc1NC(=O)c1sccc1C` (stereo not drawn) [drawing 88] showed a pest or weed control at 100 g/ha [1] of 98%.

`CC(CC(C)(C)C)c1ccccc1NC(=O)c1cn(C)nc1C(F)(F)F` (stereo not drawn) [drawing 89] showed a pest or weed control at 100 g/ha [1] of 95%.

In the case of `CCc1nn(C)c(Cl)c1C(=O)Nc1ccccc1C(C)CC(C)(C)C` (stereo not drawn) [drawing 90], the pest or weed control at 100 g/ha [1] was 96%.

For `CC(CC(C)(C)C)c1ccccc1NC(=O)c1cn(C)nc1Cl` (stereo not drawn) [drawing 91], the pest or weed control at 100 g/ha [1] was 100%.

For `Cc1nc(C(F)(F)F)c(C(=O)Nc2ccccc2C(C)CC(C)(C)C)s1` (stereo not drawn) [drawing 93], the pest or weed control at 100 g/ha [1] was 100%.

`Cc1ccsc1C(=O)Nc1ccccc1C(C)CC(C)(C)C` (stereo not drawn) [drawing 94] showed a pest or weed control at 100 g/ha [5] of 96%.

Work on `CC1=C(C(=O)Nc2ccccc2C(C)CC(C)(C)C)SCCO1` (stereo not drawn) [drawing 95] yielded a pest or weed control at 100 g/ha [5] of 100%.

`CCC(C)(C)CC(C)c1ccccc1NC(=O)C1=C(C)OCCS1` (stereo not drawn) [drawing 96] showed a pest or weed control at 100 g/ha [5] of 100%.

In the case of `CCC(C)(C)CC(C)c1ccccc1NC(=O)c1ccoc1C` (stereo not drawn) [drawing 97], the pest or weed control at 100 g/ha [5] was 93%.

In the case of `CCC(C)(C)CC(C)c1ccccc1NC(=O)c1sccc1C` (stereo not drawn) [drawing 98], the pest or weed control at 100 g/ha [5] was 99%.

Work on `CC(CC(C)(C)C)c1ccccc1NC(=O)c1cn(C)nc1C(F)(F)F` (stereo not drawn) [drawing 99] yielded a pest or weed control at 100 g/ha [5] of 95%.

With `CCc1nn(C)c(Cl)c1C(=O)Nc1ccccc1C(C)CC(C)(C)C` (stereo not drawn) [drawing 100] the pest or weed control at 100 g/ha [5] was 92%.

Compound `CC(CC(C)(C)C)c1ccccc1NC(=O)c1cn(C)nc1Cl` (stereo not drawn) [drawing 101] has a pest or weed control at 100 g/ha [5] of 100%.

`CC(CC(C)(C)C)c1ccccc1NC(=O)c1cn(C)nc1C(F)(F)F` (stereo not drawn) [drawing 102] showed an Efficacy in % [5] of 99%.

For `Cc1nc(C(F)(F)F)c(C(=O)Nc2ccccc2C(C)CC(C)(C)C)s1` (stereo not drawn) [drawing 103], the pest or weed control at 100 g/ha [5] was 99%.

Work on `Cc1ccsc1C(=O)Nc1ccccc1C(C)CC(C)(C)C` (stereo not drawn) [drawing 104] yielded a pest or weed control at 500 g/ha [6] of 100%.

For `CC1=C(C(=O)Nc2ccccc2C(C)CC(C)(C)C)SCCO1` (stereo not drawn) [drawing 105], the pest or weed control at 500 g/ha [6] was 95%.

`CCC(C)(C)CC(C)c1ccccc1NC(=O)C1=C(C)OCCS1` (stereo not drawn) [drawing 106] gave a pest or weed control at 500 g/ha [6] of 100%.

`CCC(C)(C)CC(C)c1ccccc1NC(=O)c1ccoc1C` (stereo not drawn) [drawing 107] gave a pest or weed control at 500 g/ha [6] of 88%.

With `CCC(C)(C)CC(C)c1ccccc1NC(=O)c1sccc1C` (stereo not drawn) [drawing 108] the pest or weed control at 500 g/ha [6] was 100%.

Compound `CC(CC(C)(C)C)c1ccccc1NC(=O)c1cn(C)nc1C(F)(F)F` (stereo not drawn) [drawing 109] has a pest or weed control at 500 g/ha [6] of 100%.

With `CC(CC(C)(C)C)c1ccccc1NC(=O)c1cn(C)nc1Cl` (stereo not drawn) [drawing 110] the pest or weed control at 500 g/ha [6] was 95%.

For `CC(CC(C)(C)C)c1ccccc1NC(=O)c1cn(C)nc1C(F)(F)F` (stereo not drawn) [drawing 111], the Efficacy in % [6] was 97%.

For `Cc1nc(C(F)(F)F)c(C(=O)Nc2ccccc2C(C)CC(C)(C)C)s1` (stereo not drawn) [drawing 112], the pest or weed control at 500 g/ha [6] was 95%.

Work on `Cc1nc(C)c(C(=O)Nc2ccccc2C(C)CC(C)(C)C)s1` (stereo not drawn) [drawing 113] yielded an Efficacy in % [2, 8] of 100%.

Work on `CCC(C)(C)CC(C)c1ccccc1NC(=O)C1=C(C)OCCS1` (stereo not drawn) [drawing 114] yielded an Efficacy in % [2, 8] of 100%.

`CC(CC(C)(C)C)c1ccccc1NC(=O)c1cn(C)nc1C(F)(F)F` (stereo not drawn) [drawing 117] gave an Efficacy in % [2, 8] of 100%.

`CCc1nn(C)c(Cl)c1C(=O)Nc1ccccc1C(C)CC(C)(C)C` (stereo not drawn) [drawing 118] showed an Efficacy in % [2, 8] of 100%.

In the case of `Cc1ccsc1C(=O)Nc1ccccc1C(C)CC(C)(C)C` (stereo not drawn) [drawing 119], the Efficacy in % [2, 9] was 100%.

Compound `CC1=C(C(=O)Nc2ccccc2C(C)CC(C)(C)C)SCCO1` (stereo not drawn) [drawing 121] has an Efficacy in % [2, 9] of 100%.

`CCC(C)(C)CC(C)c1ccccc1NC(=O)c1ccoc1C` (stereo not drawn) [drawing 122] showed an Efficacy in % [2, 9] of 100%.

Work on `Cc1nc(C)c(C(=O)Nc2ccccc2C(C)CC(C)(C)C)s1` (stereo not drawn) [drawing 123] yielded an Efficacy in % [3] of 95%.

`Cc1ccsc1C(=O)Nc1ccccc1C(C)CC(C)(C)C` (stereo not drawn) [drawing 124] gave an Efficacy in % [3] of 95%.

With `Cc1nc(C)c(C(=O)Nc2ccccc2C(C)CC(C)(C)C)s1` (stereo not drawn) [drawing 126] the Efficacy in % [7] was 100%.

In the case of `Cc1ccsc1C(=O)Nc1ccccc1C(C)CC(C)(C)C` (stereo not drawn) [drawing 127], the Efficacy in % [7] was 100%.

For `CCC(C)(C)CC(C)c1ccccc1NC(=O)C1=C(C)OCCS1` (stereo not drawn) [drawing 128], the Efficacy in % [7] was 94%.

In the case of `CCC(C)(C)CC(C)c1ccccc1NC(=O)c1ccoc1C` (stereo not drawn) [drawing 129], the Efficacy in % [7] was 100%.

For `Cc1nc(C(F)(F)F)c(C(=O)Nc2ccccc2C(C)CC(C)(C)C)s1` (stereo not drawn) [drawing 130], the Efficacy in % [7] was 100%.
